According to publication PMC10967572, “Induction of Oxidative Stress and Ferroptosis in Triple-Negative Breast Cancer Cells by Niclosamide via Blockade of the Function and Expression of SLC38A5 and SLC7A11” (Antioxidants, 2024):

Key:
MB231 and TXBR100 cells [1] = experiment: Lipid peroxidation (malondialdehyde) assay; type: cell-based, human; settings: niclosamide 2.5 and/or 5 μM, 24 h
Experimental: (§1) Control and niclosamide-treated cells were used for measurement of cellular glutathione levels as instructed in the manufacturer’s protocol (GSH-Glo assay, Promega, Madison, WI, USA). The levels of malondialdehyde were measured using lipid peroxidation kit [Lipid Peroxidation (MDA) Assay Kit (MAK085), Millipore-sigma, St. Louis, MO, USA].

[2] = system: TNBC cells (MB231 and TXBR100); experiment: MTT cell proliferation / viability assay; type: cell-based, human; settings: niclosamide 2 μM, 72 h, MB231 and TXBR100
Experimental: Cells were seeded in 96-well plates; after 24 h, niclosamide treatment was initiated. Cells were then cultured for 72 h with fresh medium containing freshly prepared niclosamide supplied every 24 h. Cells were washed with phosphate-buffered saline twice followed by MTT reagent (ATCC). Treatment and lysis of the cells were done as per the manufacturer’s instructions. Absorbance of the lysate was measured at 550 nm. Cell viability assay with various cell-death inhibitors was also performed as described above. Cells were treated with niclosamide (1 µM) along with cell death inhibitors (10 µM), except hydroxychloroquine (25 µM) for 48 h.

[3] = system: MB231 cells and TXBR100 cells; experiment: Cellular glutathione levels (GSH-Glo assay); type: cell-based, human; settings: niclosamide 2 μM, 24 h; MB231 and TXBR100
Experimental: as §1

SLC7A11 = molecular target: T1, SLC7A11 (Homo sapiens, UniProt Q9UPY5); experiment: Direct inhibition of SLC7A11 transport activity ([3H]-glutamate uptake) in TNBC cells; type: cell-based
T1 construct: endogenous in cells; host or cells: TNBC cell lines MB231, TXBR100 and MB453
T1 sequence (Q9UPY5 1-501): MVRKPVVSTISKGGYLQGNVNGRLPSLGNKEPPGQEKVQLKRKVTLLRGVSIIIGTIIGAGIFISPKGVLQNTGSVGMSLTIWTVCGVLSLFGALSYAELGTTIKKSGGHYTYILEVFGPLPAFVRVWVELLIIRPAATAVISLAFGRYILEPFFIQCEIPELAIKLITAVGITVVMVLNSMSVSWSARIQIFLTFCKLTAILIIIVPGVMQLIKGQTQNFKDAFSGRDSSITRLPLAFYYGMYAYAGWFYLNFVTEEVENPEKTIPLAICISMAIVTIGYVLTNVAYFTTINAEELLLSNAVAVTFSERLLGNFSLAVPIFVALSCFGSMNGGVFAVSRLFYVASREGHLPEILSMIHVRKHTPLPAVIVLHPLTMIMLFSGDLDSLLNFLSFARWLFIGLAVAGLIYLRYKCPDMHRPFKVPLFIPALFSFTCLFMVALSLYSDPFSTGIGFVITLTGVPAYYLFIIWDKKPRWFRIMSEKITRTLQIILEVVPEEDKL
T1 sequence (P08195 1-529 partner): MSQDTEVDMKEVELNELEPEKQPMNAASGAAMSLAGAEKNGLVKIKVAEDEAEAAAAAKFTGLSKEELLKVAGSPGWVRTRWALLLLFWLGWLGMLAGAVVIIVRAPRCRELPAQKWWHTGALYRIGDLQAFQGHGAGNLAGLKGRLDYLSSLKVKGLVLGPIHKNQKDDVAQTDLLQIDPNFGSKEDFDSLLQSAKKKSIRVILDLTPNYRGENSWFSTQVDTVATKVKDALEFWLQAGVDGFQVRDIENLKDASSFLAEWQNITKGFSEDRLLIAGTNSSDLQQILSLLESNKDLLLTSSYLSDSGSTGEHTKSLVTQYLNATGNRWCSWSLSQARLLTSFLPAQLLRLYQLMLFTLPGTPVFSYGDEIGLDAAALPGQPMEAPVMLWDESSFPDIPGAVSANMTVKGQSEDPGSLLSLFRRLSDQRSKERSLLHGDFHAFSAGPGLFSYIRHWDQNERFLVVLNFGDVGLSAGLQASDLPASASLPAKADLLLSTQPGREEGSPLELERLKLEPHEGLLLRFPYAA
Experimental: However, we routinely measure the activity of this transporter by cellular uptake of [^3H]-glutamate under Na^+-free conditions. Under these conditions, SLC7A11 mediates the cellular entry of [^3H]-glutamate in exchange for intracellular unlabeled glutamate. […] Non-carrier-mediated uptake (i.e, diffusional component) was determined by measuring the uptake of [^3H]-glutamate in the presence of excess unlabeled glutamate (5 mM). The transport activity of SLC7A11 was calculated by subtracting the diffusional component from total uptake.
Confluent cultures were used for uptake measurements.

MB231 and TXBR100 cells [4] = experiment: Reactive oxygen species assay (DCFH-DA); type: cell-based, human; settings: niclosamide 2.5 and/or 5 μM, 24 h
Experimental: The probe of DCFH-DA was used to measure ROS. Briefly, cells were grown in a 96-well plate and then incubated with DCFH-DA (10 µM) at 37 °C for 30 min in dark. At the end of the incubation, cells were treated with different concentrations of niclosamide. Fluorescence intensity was monitored with a Microplate Reader (Glomax multi-detection system, Promega, Madison, WI, USA) at the excitation and emission wavelengths of 485 and 528 nm, respectively. Cellular fluorescence levels were expressed as % of control group (i.e., no treatment with niclosamide).

GPX4, FTH1, p-S6K = experiment: Western blot of GPX4, ferritin heavy chain and p-S6K in TNBC cells; type: cell-based, human; settings: niclosamide 2 μM, 24 h
Experimental: Cells and tumor tissues were lysed in Pierce™ RIPA buffer (ThermoFisher Scientific, Waltham, MA, USA) supplemented with Halt™ Protease and Phosphatase Inhibitor Cocktail (ThermoFisher Scientific, Waltham, MA, USA). Homogenates were centrifuged, and supernatants were used for protein measurement via Pierce™ BCA Protein Assay Kit (ThermoFisher Scientific, Waltham, MA, USA). […] Western blot samples were prepared in Laemmli sample buffer (Bio-Rad Laboratories, Hercules, CA, USA). They were loaded onto a SDS–PAGE gel and transferred onto a PVDF membrane (Bio-Rad Laboratories, Hercules, CA, USA). The membrane was blocked and antibodies diluted in 5% nonfat dry milk (Bio-Rad Laboratories, Hercules, CA, USA) or in 5% bovine serum albumin (Irvine Scientific, Santa Ana, CA, USA) were used. Protein bands were visualized using Pierce™ ECL Western Blotting Substrate (ThermoFisher Scientific, Waltham, MA, USA) and developed on the autoradiography film (Santa Cruz, Dallas, TX, USA). Primary antibodies were purchased either from Cell Signaling (Danvers, MA, USA) [anti-GPX4 (#52455), anti-FTH (#4393), anti-HSP60 (#12165), anti-phospho-p70S6K (#9205), anti-p70S6K (#2708)] or from Abcam (Waltham, MA, USA) [Nrf2 (#ab62352)]. Secondary antibody Horseradish peroxidase-conjugated goat anti-rabbit IgG (#1706515) was purchased from Bio-Rad Laboratories (Hercules, CA, USA). For quantification of protein levels by the densitometric analysis, the experiment was carried out in triplicate and the data were collected from the resultant three Western blots.

Structure (SMILES): O=C(Nc1ccc([N+](=O)[O-])cc1Cl)c1cc(Cl)ccc1O [niclosamide]
- malondialdehyde levels (lipid peroxidation) (MB231 and TXBR100 cells [1]): increase
- decrease in cell proliferation [2]: > 50%
- decrease in glutathione levels [3]: 60–70%
- affinity for SLC7A11 relative to experimental value known for erastin (SLC7A11; niclosamide IC50 vs erastin literature value): at least three-to-four times greater
- IC50 (SLC7A11; three TNBC cell lines (MB231, TXBR100, MB453), niclosamide present only during uptake, Na+-free buffer pH 7.5): ~300 nM
- ROS levels (MB231 and TXBR100 cells [4]): increase
- glutathione peroxidase 4 protein levels (GPX4, FTH1, p-S6K; MB231 and TXBR100): decreased
- ferritin levels (GPX4, FTH1, p-S6K; MB231 and TXBR100 (more pronounced in TXBR100)): lower
- p70S6K and phospho-p70S6K levels (mTOR signaling) (GPX4, FTH1, p-S6K; both TNBC cell lines): profound decrease
